Here are results for 1 molecule from US9371330B2, “Substituted pyrazino[1,2-a]pyrimidines useful as CBP/catenin antagonists for enhancing asymmetric division of somatic stem cells” (University of Southern California, priority 2011, dated 2016).

“Also recorded” adds a separate entry of the source. Like-named read-outs stand apart in the source and are kept apart here.

For one series, the system named is PC-12 cells. The experiment in a line: PC-12 cells with FAD mutant PS-1 (L286V): neuronal differentiation. Type of series: cell-based. The text has this: However, the effects of PS-1 mutations on the stability of beta-catenin, TCF/beta-catenin signaling, and thereby its potential role in AD remain controversial. Applicant has shown that introduction of a FAD mutant PS-1 (L286V) into PC-12 cells causes increased TCF/beta-catenin signaling, leading to the inhibition of neurite outgrowth. […] In the CNS, EpB2 expression is associated with axonal guidance (16). […] In initial in vivo studies, applicant treated penta-transgenic mice that over express mutant APP(695) (Swedish (K670N,M671L), Florida ([…]) and London (V717I)) and PS-1 (M146L and L286V) mutations with ICG-001 for 2 months (months 2-4). These mice normally develop massive cerebral deposition of Aβ starting at 6 weeks of age.

The next series relates to hair follicle. The conditions noted are these: cited from earlier work.
Series [1] concerns bleomycin-induced pulmonary fibrosis. In words: bleomycin-induced lung injury / pulmonary fibrosis. Format: in vivo, mouse.
Series [2] relates to rat type II lung epithelial cells. The experiment in a line: TGF-β1-induced EMT genes in rat type II lung epithelial cells. Type of series: cell-based. From the text:
Fibrosis. Idiopathic pulmonary fibrosis (IPF)/usual interstitial pneumonia (UIP), the most common of the idiopathic interstitial pneumonias, is a devastating, progressive disorder characterized by excessive fibroblast proliferation and extracellular matrix remodeling leading to lung destruction. There is currently no effective therapy for this uniformly fatal disease. An emerging paradigm proposes a central role for alveolar epithelial cell injury and dysregulated repair in the pathogenesis of IPF. Injury to the epithelium is thought to initiate a cascade of fibroblast activation and matrix deposition, which in predisposed hosts fails to resolve as it would in the course of normal wound repair. Epithelial cells undergo excessive apoptosis, whereas fibroblasts are less amenable to apoptosis and manifest increased survival. The well-characterized model of bleomycin-induced lung injury has been extensively used to investigate potential pathways involved in the pathogenesis of pulmonary fibrosis and to explore therapeutic approaches.

The next series has as its system aquaporin 1. In words: ex vivo human skin assay, qRT-PCR of aquaporin 1. Format: cell-based. The conditions noted are these: 24 hrs; 5 uM ICG-001, 5 uM methylated ICG-001, 1 ug/ml RA. On the procedure:
(§1) Methods. Ex Vivo human skin assay culture conditions were based upon a paper by Varani J et al Experimental and Molecular Pathology, 2004.
(§2) Briefly, human skin (surgical waste from plastic surgery procedures) was obtained and the subcutaneous layer of fat was trimmed manually with a scalpel. The skin was then cut into small fragments about 2 mm square and placed in 6 well plates. 1 ml of keratinocyte culture medium (Gibco 10724-011) with 1% P/S (penstrep antibiotic) was added to each well. The epidermis, bathed in media was placed facing up. On the next day (overnight culture in the media above), the skin fragments were transferred to fresh wells that contained either 5 uM ICG-001, 5-uM methylated ICG-001 or 1 ug/ml of retinoic acid (RA). After 24 hrs, skin samples in culture were removed for RNA isolation and qRT-PCR analysis of genes of interest (e.g. elastin (a gene involved in skin appearance and pliability (e.g., wrinkling) and aquaporin 1, which is involved with hydration.

Another series concerns SW620 xenograft. In words: nude mouse SW620 xenograft model of colon cancer. The conditions noted are these: in vivo. From the text: (§3) Cancer. The importance of Wnt signaling in colorectal cancer is undisputed. Applicant's investigation on the therapeutic utility of ICG-001 therefore quite naturally began with colon cancer.
Series [3] deals with p300/beta-catenin interaction (Homo sapiens, UniProt Q09472). In words: disruption of p300/beta-catenin interaction. Format: binding. From the text: (§4) Applicant next mapped the binding domains between CBP and beta-catenin, as well as between p300 and beta-catenin. The C-terminal trans-activating region of beta-catenin (647-781) interacted with the same 1-111 amino acids of both CBP and p300 (23). However, only the interaction between CBP and beta-catenin was disrupted by ICG-001, and not the p300/beta-catenin interaction.

The next series deals with colorectal cancer cells. In words: colorectal cancer cells: survivin and cytotoxicity. Format: cell-based.
Text: as §3

The target of another series is CBP (Homo sapiens, UniProt Q92793). In words: binding to coactivator CBP (affinity chromatography; binding and isothermal calorimetry).
Text: ICG-001. Applicant's pharmacologic tools were identified using cell-based forward chemical genomic screens of small molecule secondary structure template chemical libraries (22).
as §4
In general terms: ITC needs no label: the signal is the heat of the interaction.

Series [4] relates to cerebral deposition of Aβ. In words: Aβ deposition in penta-transgenic mouse model of Alzheimer's disease. Particulars: 50 mg/kg/day, 2 months, immunohistochemistry, vs saline. Type of series: in vivo. The method, then: Applicant utilized a penta-transgenic mouse model of AD, which normally develops massive cerebral deposition of Aβ starting at 6 weeks of age. These mice were treated with either (A) ICG-001 (50 mg/kg/day) or (B) saline for 2 months. […] However, the effects of PS-1 mutations on the stability of beta-catenin, TCF/beta-catenin signaling, and thereby its potential role in AD remain controversial. […] In the CNS, EpB2 expression is associated with axonal guidance (16). […] In initial in vivo studies, applicant treated penta-transgenic mice that over express mutant APP(695) (Swedish (K670N,M671L), Florida ([…]) and London (V717I)) and PS-1 (M146L and L286V) mutations with ICG-001 for 2 months (months 2-4). These mice normally develop massive cerebral deposition of Aβ starting at 6 weeks of age.

The next series deals with MDA-MB-231 cells. In words: MDA-MB-231 stem/tumor initiating cell markers. Type of series: cell-based. From the text:
This phenotype CD44^hi, CD24^lo has been associated with a subpopulation of cells that behave like a breast cancer stem/tumor initiating cell population (51). […] Beyond reduction of survivin message level, there is a gene expression profile consistent with the occurrence of a mesenchymal to epithelial (MET) transition (i.e. decreased expression of twist, vimentin and S100A4 and an increase in E-cadherin expression). Recently, there have been a number of papers, which have correlated epithelial to mesenchymal transition (EMT) with a CSC phenotype (52). EMT is a normal physiologic process that is important in development and in adults, for example in wound healing, but pathophysiologically is associated with tumor metastasis and organ fibrosis (see later discussion on fibrosis). Specific CBP/catenin antagonists can reverse this aberrant EMT in vivo (EMT also plays a critical role in the skin in hair loss etc. J Dermatol Sci. 2011 January; 61(1):7-13. Epub 2010 Dec. 5; epithelial-mesenchymal transition (EMT) plays important roles not only in the morphogenesis but also in wound repair, tissue fibrosis and cancer progression. Recently, regulatory mechanism of this process has been elaborately elucidated. EMT can be a new therapeutic target for treating skin ulcer, fibrosing alopecia, and malignant cutaneous cancers, including squamous cell carcinoma and melanoma).

The test system of another series is elastin. The experiment in a line: ex vivo human skin assay, qRT-PCR of elastin. Format: cell-based. Particulars: 24 hrs; 5 uM ICG-001, 5 uM methylated ICG-001, 1 ug/ml RA. On the procedure: as §1, §2

CBP, sequence (Q92793 whole entry): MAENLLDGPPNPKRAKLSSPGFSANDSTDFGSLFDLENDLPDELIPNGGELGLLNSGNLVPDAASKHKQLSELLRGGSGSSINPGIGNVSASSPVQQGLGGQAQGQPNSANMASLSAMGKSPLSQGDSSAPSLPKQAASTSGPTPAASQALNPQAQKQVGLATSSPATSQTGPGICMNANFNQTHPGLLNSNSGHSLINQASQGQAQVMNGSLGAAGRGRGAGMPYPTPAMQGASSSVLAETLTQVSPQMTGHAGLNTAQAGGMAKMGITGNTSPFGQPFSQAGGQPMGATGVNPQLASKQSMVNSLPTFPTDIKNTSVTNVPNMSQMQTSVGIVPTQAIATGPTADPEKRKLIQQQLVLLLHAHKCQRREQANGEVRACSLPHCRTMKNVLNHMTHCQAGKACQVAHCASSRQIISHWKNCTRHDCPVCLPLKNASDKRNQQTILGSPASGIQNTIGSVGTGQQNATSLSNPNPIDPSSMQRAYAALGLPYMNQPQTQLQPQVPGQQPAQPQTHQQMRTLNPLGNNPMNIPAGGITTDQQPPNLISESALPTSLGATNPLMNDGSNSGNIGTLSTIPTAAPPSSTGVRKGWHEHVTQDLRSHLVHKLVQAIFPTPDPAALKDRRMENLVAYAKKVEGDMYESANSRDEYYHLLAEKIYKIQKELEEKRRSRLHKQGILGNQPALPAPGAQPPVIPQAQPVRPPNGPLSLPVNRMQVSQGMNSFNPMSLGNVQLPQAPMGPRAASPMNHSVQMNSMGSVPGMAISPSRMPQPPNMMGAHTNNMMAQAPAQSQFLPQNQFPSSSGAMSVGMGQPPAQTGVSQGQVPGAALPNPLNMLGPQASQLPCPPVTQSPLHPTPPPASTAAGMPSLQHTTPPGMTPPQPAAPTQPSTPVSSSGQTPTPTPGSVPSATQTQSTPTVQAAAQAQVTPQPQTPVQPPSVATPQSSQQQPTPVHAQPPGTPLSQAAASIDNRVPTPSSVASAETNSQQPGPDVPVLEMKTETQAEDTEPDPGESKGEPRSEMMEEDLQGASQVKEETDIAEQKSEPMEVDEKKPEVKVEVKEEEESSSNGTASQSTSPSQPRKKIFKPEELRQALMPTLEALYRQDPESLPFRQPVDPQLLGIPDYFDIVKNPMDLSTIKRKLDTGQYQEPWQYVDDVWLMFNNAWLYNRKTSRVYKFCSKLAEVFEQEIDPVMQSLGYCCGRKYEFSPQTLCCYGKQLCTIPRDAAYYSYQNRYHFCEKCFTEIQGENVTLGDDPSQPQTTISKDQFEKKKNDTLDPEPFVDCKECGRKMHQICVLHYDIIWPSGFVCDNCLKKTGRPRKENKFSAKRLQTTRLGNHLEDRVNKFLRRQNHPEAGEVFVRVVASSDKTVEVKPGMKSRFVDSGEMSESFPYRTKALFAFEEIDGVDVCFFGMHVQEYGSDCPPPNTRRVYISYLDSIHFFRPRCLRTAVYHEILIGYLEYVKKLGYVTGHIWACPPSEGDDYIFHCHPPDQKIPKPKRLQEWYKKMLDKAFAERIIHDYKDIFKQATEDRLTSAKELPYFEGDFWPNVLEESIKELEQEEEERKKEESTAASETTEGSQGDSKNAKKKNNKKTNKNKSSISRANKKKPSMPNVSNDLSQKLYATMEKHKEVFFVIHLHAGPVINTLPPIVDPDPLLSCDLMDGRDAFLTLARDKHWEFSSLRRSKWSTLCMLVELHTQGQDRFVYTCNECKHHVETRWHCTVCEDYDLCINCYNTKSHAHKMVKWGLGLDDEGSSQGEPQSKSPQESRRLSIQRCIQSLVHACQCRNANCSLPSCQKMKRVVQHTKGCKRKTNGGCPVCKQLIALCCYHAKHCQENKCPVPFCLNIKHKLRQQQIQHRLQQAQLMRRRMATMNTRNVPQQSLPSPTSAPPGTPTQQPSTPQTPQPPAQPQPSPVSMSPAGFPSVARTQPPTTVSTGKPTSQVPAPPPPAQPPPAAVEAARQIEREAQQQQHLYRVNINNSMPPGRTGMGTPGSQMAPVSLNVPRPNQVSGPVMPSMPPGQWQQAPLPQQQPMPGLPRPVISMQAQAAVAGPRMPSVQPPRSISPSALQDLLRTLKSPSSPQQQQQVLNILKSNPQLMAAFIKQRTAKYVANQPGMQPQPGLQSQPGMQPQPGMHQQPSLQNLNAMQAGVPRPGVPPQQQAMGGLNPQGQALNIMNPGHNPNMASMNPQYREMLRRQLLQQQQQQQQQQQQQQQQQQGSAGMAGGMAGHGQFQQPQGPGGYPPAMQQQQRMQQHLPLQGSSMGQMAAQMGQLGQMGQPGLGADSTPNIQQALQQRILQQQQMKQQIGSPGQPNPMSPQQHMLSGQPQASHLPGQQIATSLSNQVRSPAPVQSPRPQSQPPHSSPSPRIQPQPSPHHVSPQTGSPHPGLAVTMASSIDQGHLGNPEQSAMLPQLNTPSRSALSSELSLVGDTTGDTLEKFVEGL
p300/beta-catenin interaction, sequence (Q09472 1-111): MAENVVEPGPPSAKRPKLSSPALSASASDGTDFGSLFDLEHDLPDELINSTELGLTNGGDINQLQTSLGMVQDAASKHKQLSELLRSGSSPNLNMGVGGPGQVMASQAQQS

For the molecule `O=C1[C@H](Cc2ccc(O)cc2)N2C(=O)CCN(C(=O)NCc3ccccc3)[C@H]2CN1Cc1cccc2ccccc12` [ICG-001], the GAP43 expression entry with PC-12 cells (NGF-induced differentiation, vs untreated cells) is given as “dramatically increased”. For the same molecule, the “neuronal differentiation and neurite outgrowth” value in the series with PC-12 cells (PS-1 (L286V) mutant cells) is “rescues the defects in neuronal differentiation and neurite outgrowth”. For the same molecule, the results for the survivin expression entry in the series with hair follicle and in the series on colorectal cancer cells were “decreased survivin expression” and “down-regulated survivin”, respectively. Besides, in the series with hair follicle (dose-dependent), the hair fiber elongation entry is listed as “significantly reduced hair fiber elongation”. The “bleomycin-induced lacZ expression in airway and alveolar epithelium” value in [1] (BAT-gal transgenic mice) is listed as “significantly reduced”. Further, the “expression of S100A4/FSP-1” value in series [1] (bleomycin model in vivo in the mouse and fibroblasts from IPF patients in vitro) was “significantly decreased the expression of S100A4/FSP-1”. The established fibrosis result in [1] (mouse, in vivo) is “could reverse established fibrosis”. Also, the “severity of pulmonary fibrosis” value in series [1] (pretreatment) is listed as “significantly reduced the severity of pulmonary fibrosis”. In addition, the “TGF-β1-induced up-regulation of α-SMA and type I collagen” value in series [2] is “prevents the TGF-β1-induced up-regulation of α-SMA and type I collagen”. In addition, the “expression of aquaporin 1” value in the series with aquaporin 1 is reported as “increase”. Also, the tumor growth result in the series on SW620 xenograft is on record as “reducing tumor growth”. The “effect on the p300/beta-catenin interaction” value in series [3] is on record as “without affecting the p300/beta-catenin interaction”. Besides, in the series on colorectal cancer cells (colorectal cancer cells vs normal colonic epithelial cells), the cytotoxicity entry is recorded as “selective cytotoxicity in colorectal cancer cells, but not in normal colonic epithelial cells”. The Kd on CBP (affinity chromatography approach, read-out: binding affinity to the coactivator CBP) is around 1 nM; at CBP (binding and isothermal calorimetry studies, read-out: binding affinity to the N-terminus of CBP), around 1 nM. Besides, the “amyloid plaque formation / Aβ staining” value in series [4] is “significant decrease in amyloid plaque formation; also recorded: decrease in Aβ staining”. Moreover, in the series with MDA-MB-231 cells, the CD44 expression entry is reported as “decreasing CD44 expression”. Besides, the “side population (SP) and ALDH activity” value in the series on MDA-MB-231 cells was “dramatically decreases the side population (SP) and ALDH activity”. Also, in the series on MDA-MB-231 cells (24 h), the “cell surface CD24 expression” value is given as “significantly increased the expression of cell surface CD24”. Also, in the series on elastin, the expression of elastin result is reported as “increase”.
